Patent US11649228B2, “Zinc indicators for cellular imaging” (The Board of Regents of the University of Texas System, priority 2018, dated 2023)

Columns and labels:
[1] = test system: human islet endocrine cells; test: Flow cytometry analysis and sorting of human islet cells with ZIGIR-2; type: cell-based; settings: ZIGIR-2, HPi2 and TM4SF4 labeling
Excerpt: Thus far the majority of studies on ZnT8 and Zn^2+ signaling have been carried out in mouse islet cells, and less is known about the expression of ZnT8 and Zn^2+ distribution in human islet endocrine cells. To analyze granular Zn^2+ activity in human islets by flow cytometry, the inventors dispersed human islets into single cells and sequentially labeled them with ZIGIR-2 and antibodies reactive towards human pancreatic endocrine cells and α-cells (FIG. 12A), including the HPi2 antibody (Dorrell et al., 2008) and an antibody of a tetraspanin family member protein TM4SF4 (Muraro et al., 2016), respectively. The islet endocrine cells (HPi2+, FIG. 13) contained a subset of cells showing high ZIGIR-2 signal and low TM4SF4 expression (P1 subset, FIG. 12B). Immunofluorescence analysis of the sorted cells confirmed that the P1 subset was highly enriched with human β-cells (91%), together with a small percent of δ-cells (FIG. 12C). […] They obtained similar flow cytometry results from different human donors and confirmed high enrichments of β-cell or α-cell in P1 or P2 subset (including P2a and P2b), respectively (FIG. 14). […] In addition to containing more glucagon granules, P2a cells might also express more ZnT8 protein than P2b. Future studies using more quantitative techniques such as western blot should help address the issue.

[2] = test system: primary mouse islet cells; test: Flow cytometry analysis and FACS of mouse islet cells labeled with ZIGIR-2 and Ex4-Cy5; type: cell-based
Excerpt: Among islet endocrine cells, β-cells have long been known to contain a high level of total Zn^2+ in their secretory granules. However, it remains unclear how Zn^2+ activities differ among different types of secretory granules including the glucagon granule and the somatostatin granule. To address the question, the inventors combined ZIGIR-2 and flow cytometry to analyze the granular Zn^2+ activity in primary mouse islet cells. To facilitate distinguishing different endocrine cells, they labeled mouse islets with a β-cell marker, a Cy5 dye conjugate of Exendin-4 peptide (Ex4) (Scheme 3). Ex4 is a high affinity ligand of the glucagon like peptide 1 receptor (GLP-1R). Since GLP-1R is highly expressed in mouse islet β-cells,^46 fluorescently labeled conjugates of Ex4 are rapidly internalized into β-cells through receptor-mediated endocytosis to mark β-cells.^36, 47 After labeling mouse islets with Ex4-Cy5, the inventors dispersed the islets into single cells and labeled them with ZIGIR-2 (FIG. 10A). […] To identify each subset of cells, the inventors isolated them by FACS and analyzed the sorted cells by immunofluorescence using antibodies against insulin, glucagon, and somatostatin. The immunofluorescence result confirmed that P1 and P2 subsets were essentially pure β-cells (99±0.3%, N=3) and α-cells (98±0.5%, N=3), respectively (FIG. 10C). […] The remaining ˜20% of cells in P3 and most cells in P4 were not stained by any of the three hormone antibodies. These cells likely represented rare […], islet endothelial cells or lymphoid cells, and residual exocrine cells.
Mouse islets were isolated as previously described (Li et al., 2011) by perfusing Collagenase P (Roche, 1.4 mg/mL in HBSS with 5 mM glucose) through the common bile duct. Following a 15 min digestion at 37° C., the pancreas digestion was washed twice with HBSS by centrifugation and the islets were hand-picked under a dissection scope. Isolated islets were cultured 2-4 hours in RPMI-1640 medium (GIBCO, #11875-093) supplemented with 10% (v/v) FBS, 2.0 mM sodium-pyruvate, 100 U/mL penicillin and […] at 37° C. in 5% CO2. To distinguish islet β-cells from non-β cells, islets were labeled with a fluorescently labeled exendin-4 derivative as previously described (Kim et al., 2017). Briefly, Ex4-Cy5 (100 nM) was added to the culture medium 2 hours before islet dispersion. ZIGIR labeling was carried out subsequently after islet dispersion. Mouse islets were dispersed with 0.05% Trypsin solution in DPBS at 37° C. for 15 min. The dispersed islet cells were incubated with 0.5 μM ZIGIR-1 (or ZIGIR-2) at 37° C. for 15 min in the cell sorting buffer (SAB Buffer containing 3 mM glucose, 0.5% BSA and 0.1 mg/mL DNase I (Roche)). The cells were then washed twice with ice-cold SAB and resuspended in the cell sorting buffer. The labeled cells were analyzed by flow cytometry on a LSRFortessa cell analyzer (BD Biosciences). DAPI (200 ng/mL) was added to the cell suspension prior to flow cytometry to distinguish live cells (DAPI negative) from dead cells (DAPI positive). Only live cells were analyzed.

[3] = Zn^2+ titration of ZIGIRs by fluorescence emission (Hill plot); type: binding
Procedure: UV-Vis spectra were recorded in a 1-cm path quartz cell on a Shimadzu 2401 PC spectrometer. Fluorescence excitation and emission spectra were recorded on a Fluorolog 3 spectrometer (Jobin-Yvon Horiba, Edison, N.J.). Zinc titration was performed by adding ZIGIRs (0.5 μM final concentration) to buffered Zn^2+ solutions containing 100 mM HEPES (pH 7.4). Nitrilotriacetic acid (NTA, 10 mM) and varying concentrations of ZnSO4 (0-9 mM) were mixed to reach free Zn^2+ concentrations between 0.1 nM and 40 nM (Li et al., 2011). Zn^2+ concentrations above 40 nM were controlled by iminodiacetate (IDA, 10 mM) and varying amounts of ZnSO4 (0-9.7 mM) in 100 mM HEPES (pH 7.4; Sasaki et al., 2011). To determine Zn^2+ binding dissociation constants (Kd(Zn^2+)), the Zn^2+ titration data were fitted to the least square exponential equation (Prism 7). Fluorescence quantum yields of ZIGIRs at pH 7.5 were determined using rhodamine 6G as the reference (Φfl=0.94 in MeOH; Magde et al., 2002). An example in shown FIGS. 11A0B. To examine the pH sensitivity of ZIGIRs, the fluorescence emission spectra was recorded from pH 3-9.4 in either nominally Zn^2+-free solutions containing 5 mM iminodiacetate or in 25 μM ZnSO4 solutions. The pH was controlled with 10 mM pH buffers including chloroacetic acid (pH 3.1), acetate (pH 4.1 and 5.0), 2-morpholinoethanesulfonic acid (MES, pH 6.14), HEPES (pH 7.5) and N-cyclohexyl-2-aminoethanesulfonic acid (CHES, pH 9.4).

[4] = ZIGIR-2 and Ex4-Cy5 labeling, N=3

## CN(C)c1ccc2c(-c3ccc(NCCN(CCc4ccccn4)Cc4ccccn4)cc3C(=O)[O-])c3ccc(=[N+](C)C)cc-3oc2c1 [ZIGIR-2]
[1]
  α-cell purity of sorted P2a and P2b subsets: > 95%
  β-cells in sorted P1 subset: 91%
[2]
  median fluorescence intensity (MFI) in α-cells versus δ-cells: nearly an order of magnitude stronger
  median fluorescence intensity (MFI) in α-cells, weaker than in β-cells: about 5 times
[2]; [4]
  α-cells in sorted P2 subset: 98±0.5%
  β-cells in sorted P1 subset: 99±0.3%
  δ-cells in sorted P3 subset: 81±4.8%
[2]; compared with commercially available Zn^2+ sensors
  ability to resolve islet cells into subsets by granular Zn^2+ activity: able to resolve islet cells into distinct subsets
[3]
  FC (fold change in fluorescence brightness ϕfl×ε from Zn^2+-free to Zn^2+-bound state): 34
[3]; 100 mM HEPES pH 7.4
  Kd: 310 nM
[3]; Table 2
  Kd: 810 nM
  Zn^2+ response (fold change): 34×
